Laboratory results reported in US10272092B2, “Composition for preventing or treating mucositis comprising NecroX as effective ingredient” (THE CATHOLIC UNIVERSITY OF KOREA INDUSTRY-ACADEMIC …, priority 2014, dated 2019).

Assays:
[1] = test system: intestinal epithelial cells (IEC-6); test: MTS assay of IEC-6 cell proliferation in normal environments; assay type: cell-based; conditions: no radiation, 5, 10, 20, 40 μM for 30 minutes, measured after 2 days
Procedure: To examine an effect of NecroX-7 on IEC-6 cell proliferation ability in normal environments, IEC-6 cells were treated with NecroX-7 at each concentration (5 μM, 10 μM, 20 μM, and 40 μM) for 30 minutes, the media were replaced and, after 2 days, the viability of the IEC-6 cells was measured by MTS (3-(4,5-dimethylthiazol-2-yl)-5-(3-carboxymethoxyphenyl)-2-(4-sulfophenyl)-2H-tetrazolium) assay.

[2] = test system: necrocytosis caused by oxidative stress and acetaminophen; conditions: reported, Park et al. 2013; cited from earlier work
[3] = test system: Human tumor cells; test: MTS viability of human tumor cells, NecroX-7 with or without 5-FU; assay type: cell-based; conditions: 5, 10, 20, 40 μM for 30 minutes; media without 5-FU; after 3 days; FIG. 10
Procedure: Human tumor cells were treated with NecroX-7 at each concentration ((5 μM, 10 μM, 20 μM, and 40 μM) for 30 minutes, the media were replaced by media with or without 5-FU, which is a chemotherapeutic agent, the cells were loaded on a 96-well plate and, after 3 days, the viability of the cells was measured by MTS assay.

[4] = test system: intestinal epithelial cells (IEC-6); test: MTS assay of IEC-6 cells after irradiation; assay type: cell-based; conditions: 20 μM and 40 μM NecroX-7 for 30 minutes; 2 days after radiation irradiation; FIG. 6
Procedure: To investigate an effect of NecroX-7 on cell proliferation ability after irradiation, the IEC-6 cells were treated with NecroX-7, for 30 minutes, according to concentration, the media were replaced, and then MTS assay was performed thereon 2 days after radiation irradiation.

[5] = test system: anticancer drug-induced mucositis mouse model; test: Anticancer drug (5-FU)-induced mucositis mouse model: viability, body weight; assay type: in vivo, C57BL/6(H-2k) mice; conditions: 50 mg/kg 5-FU i.p. five times; NecroX-7 intravenously five times at 0.3, 3 or 30 mg/kg; compared to group not treated; FIG. 7
Procedure: 7 week- to 9 week-old C57BL/6(H-2k) mice were used as an animal model, and injected intraperitoneally with 50 mg/kg of 5-fluorouracil (5-FU) every day for 5 days to induce oral and intestinal mucosal damage, thereby completing the establishment of a mucositis model. Effects of NecroX-7 administered on such a mucositis model were analyzed by comparison in terms of viability, body weight, and intestinal functions.
To induce oral and intestinal mucositis, the C57BL/6(H-2k) mice were intraperitoneally injected with 50 mg/kg of 5-FU five times. NecroX-7 was administered intravenously five times at a dose of 0.3 mg/kg or 3 mg/kg or 30 mg/kg and the results were compared.

[6] = test system: liver injury due to ischemic reperfusion; conditions: reported, Park et al. 2013; cited from earlier work
[7] = test system: mitochondrial ROS in intestinal epithelial cells (IEC-6); test: Mitochondrial ROS by CM-H2ROS staining after radiation; assay type: cell-based; conditions: IEC-6 cells after radiation; FIG. 6
[8] = test system: tongue and intestinal tissues of anticancer drug-induced mucositis mice; test: H&E staining of tongue and intestinal tissues, 5-FU-induced mucositis; assay type: in vivo
[9] = test system: radiation-induced mucositis mouse model; test: Radiation-induced mucositis mouse model: viability, body weight, intestinal functions; assay type: in vivo, C57BL/6(H-2k) mice; conditions: 1100 cGy radiation, compared to group not treated
Procedure: NecroX-7 ((tetrahydropyran-4-yl)-[2-phenyl-5-(1,1-dioxo-thiomorpholine-4-yl)methyl-1H-indole-7-yl]amine) was obtained from LG Life Sciences, Ltd. 7 week- to 9 week-old C57BL/6(H-2k) mice were used as an animal model, and irradiated with 1,100 cGy whole-body radiation to induce damage to the intestinal mucosa, thereby completing the establishment of a mucositis model. Effects of NecroX-7 administered on such a mucositis model were analyzed by comparison in terms of viability, body weight, and intestinal functions.
(A) C57BL/6(H-2k) mice were irradiated with strong radiation 1100 cGy (radiation source: X-ray Mevatron MXE-2) at a dose rate of 1 Gy/min to induce mucositis. NecroX-7 was administered five times at a dose of 0.3 mg/kg or 3 mg/kg or 30 mg/kg and the results were compared.
Induction of intestinal mucositis by radiation causes side effects such as intestinal hemorrhaging and fecal incontinence. Thus, in the present experiment, a mucositis model was established by irradiating high-dose radiation of 1100 cGy, and NecroX-7 was treated total five times and the NecroX-7 treated group was compared to a group not treated with NecroX-7. A protective effect of NecroX-7 with respect to radiation-induced intestinal mucositis was examined.

[10] = test system: tumor cells; test: MTT assay of irradiated tumor cells; assay type: cell-based; conditions: 800 cGy radiation; NecroX-7 according to doses; 3 days incubation; FIG. 5
Procedure: (§1) Mucositis is a general side effect caused by radiation or chemotherapy for tumor treatment. Thus, to confirm the efficacy of a mucositis therapeutic agent, an effect thereof on tumor proliferation should be evaluated. Normal cells and tumor cells were irradiated with 800 cGy radiation, treated with NecroX-7 according to doses, and inoculated on a 96-well plate, incubated at 37[…] and 5% CO2 for 3 days, and then cell proliferation was confirmed by MTT assay. After incubation for 3 days, an MTT solution was added thereto and a reaction was allowed to occur therein for 3 hours, and the absorbance thereof was measured at […].

[11] = test system: liver injury caused by carbon tetrachloride; conditions: mouse model; reported, Park et al. 2013; cited from earlier work
[12] = test system: normal cells; test: MTT assay of irradiated normal cells; assay type: cell-based; conditions: 800 cGy radiation; NecroX-7 according to doses; 3 days incubation; FIG. 5
Procedure: as §1

[13] = test system: intestinal tissue of radiation-induced mucositis mice; test: H&E staining of intestinal tissue, radiation-induced mucositis; assay type: in vivo; conditions: 30 mg/kg NecroX-7, FIG. 3
[14] = test system: intestinal tissue of radiation-induced mucositis mice; test: Cell proliferation (bromodeoxyuridine) by IHC staining of intestinal tissue; assay type: in vivo; conditions: 30 mg/kg NecroX-7, unlike a control, FIG. 4
Procedure: Cell proliferation (bromodeoxyuridine) was confirmed by IHC staining. Before obtaining mouse tissues, mice were each injected with […] of a BrDU labeling reagent (5-bromo-2′-deoxyuridine and 5-fluoro-2′-deoxyuridine) and intestinal tissue was extracted within 2 hours to prepare paraffin blocks. 4 μm continuous sections were obtained from paraffin-embedded tissue, treated with xylene three times to remove paraffin, and then rinsed stepwise in 95%, 90% and 70% ethanol. After removing endogenous peroxidase from 0.3% hydrogen peroxide, the sections were treated with goat serum for 30 minutes. A primary antibody was diluted in PBS containing 3% BSA according to the manufacturer's instructions and then maintained for 1 hour to induce a reaction therebetween. […] The cells were maintained in 3 μg/ml HRP streptoavidin for 30 minutes, developed color with DAB and hydrogen peroxide, and then were subjected to contrast staining with Mayer's hematoxylin or 1% methyl green.

[15] = NecroX-7 five times at 0.3, 3 or 30 mg/kg, FIG. 1

## O=S1(=O)CCN(Cc2cc(NC3CCOCC3)c3[nH]c(-c4ccccc4)cc3c2)CC1 [NecroX-7, (tetrahydropyran-4-yl)-[2-phenyl-5-(1,1-dioxo-thiomorpholine-4-yl)methyl-1H-indole-7-yl]amine]
[1]
  effect on IEC-6 cell proliferation (MTS viability): nearly no effect on cell proliferation
[2]
  protection against necrocytosis caused by oxidative stress and acetaminophen: protective effect against necrocytosis caused by oxidative stress and acetaminophen
[3]
  viability of human tumor cells (MTS), NecroX-7 alone: anticancer effect in a concentration-dependent manner
[4]
  number of live IEC-6 cells (MTS): significantly increased
[5]
  body weight loss: suppressed body weight loss
  viability: increased viability
[6]
  inhibition of liver injury due to ischemic reperfusion: effectively inhibits liver injury due to ischemic reperfusion
[7]
  mitochondrial ROS (CM-H2ROS staining): significantly suppressed mitochondrial ROS increased by radiation
[8]; 30 mg/kg of NecroX-7, FIG. 8
  H&E histology of tongue and oral mucosa (epidermal atrophy, infiltration of inflammatory and necrotic cells): aspects similar to normal tissues
[8]; NecroX-7-treated group, FIG. 9
  H&E histology of intestinal tissue (villi and mucosal destruction): aspects similar to normal tongue and intestinal tissues
[9]; [15]
  body weight loss: inhibited body weight loss
  viability: increased viability
[9]; NecroX-7 total five times, FIG. 2
  intestinal function protection (length of the intestines, stool production): protected, similar to the intestines of a normal group
[10]
  proliferation of tumor cells (MTT): suppressed or decreased in most cancer cell lines
[11]
  prevention of liver injury caused by carbon tetrachloride: effect of preventing liver injury caused by carbon tetrachloride in a mouse model
[12]
  radiation-induced cell death in normal cells (MTT): radiation-induced cell death was prevented
[13]
  H&E histology of intestinal tissue (villi and mucosal destruction): aspects similar to normal intestinal tissue
[14]
  cell proliferation (bromodeoxyuridine) in intestinal tissue: vigorous cell proliferation was observed
